Laboratory results taken from US9446127B2, “Compositions including androgen receptor degradation (ARD) enhancers and methods of prophylactic or therapeutic treatment of skin disorders and hair loss” (AndroScience Corporation, priority 2007, dated 2016).

How the values were obtained:
skin wounds = assay: Skin wound healing in Balb/c mice; type: in vivo; conditions: cream 25 uM twice per day
Procedure: The ability of ASC-J9 to hasten wound healing in an animal model was tested using Balb/c mice. Using a skin puncher, wounds were created near the back of the neck region on retired male breeder Balb/c mice. Mice were treated with either an ASC-J9 cream (25 uM) or a vehicle control cream twice per day topically at the wound site.

sebaceous glands = assay: Reduction of sebaceous glands in Fuzzy rats, topical cream; type: in vivo
Procedure: Topical creams were prepared as later described in EXAMPLE 12. […] The test or control creams were applied using a cotton swab to the dorsal skin of the animal, once daily, over a period of 8 weeks. Animals were then sacrificed and skin samples collected for microscopic examination. Commercial hair remover was applied to the dorsal surface of the euthanized animals. After 5 minutes, the hair remover and hairs were removed with a tissue. The area was thoroughly cleaned with 75% isopropyl alcohol. A 4-millimeter skin punch was used to remove skin tissue samples, which were incubated for 2 to 3 hours in a ethylenediaminetetraacetate (EDTA, 17 millimolar), sodium phosphate (0.1 molar, pH 7.4) solution at 37 degrees Celsius. The epidermis was carefully separated from the dermis and stored in 10% phosphate-buffered formalin. Prior to microscopic examination, the samples were mounted on glass slides. Areas of well-preserved glandular lobules were selected for microscopic imaging. Edges of the glandular lobes were traced and the areas of the traced lobes obtained with Image J software (National Institutes of Health).

LNCaP cells = assay: LNCaP cell growth assay (cell count); type: cell-based, human; conditions: 5 μM
Procedure: LNCaP cells express an endogenous mutant AR that is found in prostate cancer patients. This clinically relevant cell model was used to study ASC-J9's effect in suppressing prostate cancer cell growth. Cells were plated, at a density of approximate 6.5×10^4 cells/well, into 6-well tissue culture dishes. Two days later, the complete medium was aspired and 10% charcoal/dextran-treated (hormone depleted) serum-containing medium was added. Test compound, ASC-J9 was then added to the medium at a final concentration of 5 μM with or without 1 nM of DHT. For vehicle control, the same amount of DMSO was added into the medium. For the subsequent 5 days, the medium was aspired once per day, and replaced with fresh medium containing test compound and/or DHT. At designated times, a portion of cells was harvested by trypsinization, and cell count was performed using a hemacytometer.

COc1ccc(C=CC(=O)C=C(O)C=Cc2ccc(OC)c(OC)c2)cc1OC [ASC-J9, 5-hydroxy-1,7-bis(3,4-dimethoxyphenyl)-1,4,6-heptatrien-3-one]
wound size (skin wounds; day 5, vs vehicle): smaller wound size
wound healing (skin wounds; day 10): completely healed
size of ducts of sebaceous glands (sebaceous glands; male Fuzzy rats, topical (FIG. 10E), comparable to castration, better than flutamide): significantly reduced the size of ducts
size of the sebaceous gland (sebaceous glands; male rats, topical, 200 μM (FIG. 10A-C), not to the extent caused by castration): significant reduction in the size of the sebaceous gland
time to reduction of brown skin color and bands of sebaceous glands (sebaceous glands; topical cream 25 micromolar, once daily): 4-5 weeks
size of the sebaceous glandular lobe (sebaceous glands; topical, various concentrations (FIG. 10D), less than castration, better than flutamide): significant reduction in the size of the sebaceous glandular lobe
LNCaP cell growth in the presence of DHT (LNCaP cells; 1 nM DHT, 5 days): good potency to decrease LNCaP cell growth
viable cells (LNCaP cells; end of 5-day incubation): only a minimal number of viable cells
cell number per well (LNCaP cells; without DHT, starting from Day 2, vs vehicle control): marked decrease in cell number
